The source of these data is ChEMBL document CHEMBL3272199, “Beta-lactam antibiotics with N-oxide side chains. 1. Quinoxaline N-oxides” (1976).

For experiment [1], the system named is Proteus mirabilis. The experiment is described as follows: Antimicrobial activity against Proteus mirabilis infected in mouse assessed as growth inhibition at 250 mg/kg. Details: dose 250 mg/kg. The class given is functional, organism-based.
Experiment [2] has as its system Salmonella. The experiment in a line: Antibacterial activity against Salmonella schottmuelleri assessed as growth inhibition incubated for 24 hrs using mixed anhydride. The class given is functional.
The subject of experiment [3] is Staphylococcus aureus. The experiment is described as follows: Antibacterial activity against Staphylococcus aureus assessed as growth inhibition incubated for 24 hrs using mixed anhydride. The class given is functional.
Experiment [4] concerns Pseudomonas aeruginosa. The experiment in a line: Antimicrobial activity against Pseudomonas aeruginosa infected in mouse assessed as growth inhibition at 250 mg/kg. The class given is functional, organism-based. Also noted: dose 250 mg/kg.
Experiment [5] relates to Staphylococcus aureus. The experiment is described as follows: Antibacterial activity against Staphylococcus aureus assessed as zone of inhibition at 100 ug/ml incubated for 24 hrs. The class given is functional, organism-based.
In experiment [6] the test system is Salmonella. The experiment is described as follows: Antibacterial activity against Salmonella schottmuelleri assessed as growth inhibition incubated for 24 hrs using acid chloride. The class given is functional.
Experiment [7] relates to Staphylococcus aureus. The experiment in a line: Antibacterial activity against Staphylococcus aureus assessed as growth inhibition incubated for 24 hrs using acid chloride. The class given is functional.

Values after ≈ are worked out from the molar mass of the structure shown. Active and inactive are the calls of the source.

Take `Cc1c(CC(=O)N[C@@H]2C(=O)N3C(C(=O)O)=C(C[O-])CS[C@H]23)[n+]([O-])c2ccccc2[n+]1[O-].[Na+]`: the result in experiment [1] and in experiment [4] was inactive. For the same compound, the results for the minimal inhibitory concentration (MIC) in experiment [2] and in experiment [3] were greater than 1000 µg/mL and 1000 µg/mL, respectively. For the same compound, the “inhibition zone (IZ)” value in experiment [5] is “Active”.
As to `Cc1c(CC(=O)N[C@@H]2C(=O)N3[C@@H]2SC(C)(C)[C@@H]3C(=O)[O-])[n+]([O-])c2ccccc2[n+]1[O-].[Na+]`, the outcome in experiment [1] and in experiment [4] was inactive. The results for the MIC in experiment [2] and in experiment [3] were 1000 µg/mL and 100 µg/mL, respectively.
Turning to `Cc1c(C(=O)N[C@@H]2C(=O)N3[C@@H]2SC(C)(C)[C@@H]3C(=O)[O-])[n+]([O-])c2ccccc2[n+]1[O-].[Na+]`, the result in experiment [1] and in experiment [4] was inactive. Further, the MIC (in general, the smallest concentration in the dilution series that meets the test's criterion for growth inhibition) in experiment [6] came out at 1000 µg/mL; in experiment [7], 100 µg/mL.
On to `CC1(C)S[C@@H]2[C@H](NC(=O)c3c(-c4ccccc4)[n+]([O-])c4ccccc4[n+]3[O-])C(=O)N2[C@H]1C(=O)[O-].[Na+]`, for which the result in experiment [1] and in experiment [4] was inactive. Also, the MIC in experiment [6] was 1000 µg/mL; in experiment [7], 100 µg/mL. For the same compound, in experiment [5], the “inhibition zone (IZ)” value was “Active”.
On to `CC1(C)S[C@@H]2[C@H](NC(=O)CCCc3c(-c4ccccc4)[n+]([O-])c4ccccc4[n+]3[O-])C(=O)N2[C@H]1C(=O)[O-].[Na+]`, for which the result in experiment [1] and in experiment [4] was inactive. The values for the MIC in experiment [2] and in experiment [3] were greater than 1000 µg/mL and 10 µg/mL, respectively.
Turning to `CCOC(=O)c1c(C(=O)N[C@@H]2C(=O)N3[C@@H]2SC(C)(C)[C@@H]3C(=O)[O-])nc2ccccc2[n+]1[O-].[Na+]`, the outcome in experiment [1] and in experiment [4] was inactive. The MIC in experiment [6] amounted to 1000 µg/mL; in experiment [7], 100 µg/mL. Besides, the “inhibition zone (IZ)” value in experiment [5] is “Active”.
Consider `CC1(C)S[C@@H]2[C@H](NC(=O)Cc3ccccc3)C(=O)N2[C@H]1C(=O)O` [PENICILLIN G], for which the MIC in experiment [6], in experiment [7], in experiment [2] and in experiment [3] was 10 µg/mL (≈ 29.9 µM) each time.
For the compound `CCOC(=O)c1c(CCC(=O)N[C@@H]2C(=O)N3[C@@H]2SC(C)(C)[C@@H]3C(=O)[O-])[n+]([O-])c2ccccc2[n+]1[O-].[Na+]`, the outcome in experiment [1] and in experiment [4] was inactive. In addition, the MIC in experiment [2] was found to be 1000 µg/mL; in experiment [3], 10 µg/mL.
Take `Cc1c(C)[n+]([O-])c2cc(C(=O)N[C@@H]3C(=O)N4[C@@H]3SC(C)(C)[C@@H]4C(=O)[O-])ccc2[n+]1[O-].[Na+]`: the outcome in experiment [1] and in experiment [4] was inactive. For the same compound, the MIC in experiment [2] was greater than 1000 µg/mL; in experiment [3], 100 µg/mL.
